{
  "source": "patent US9273043B2",
  "about": "“TRPV1 antagonists including dihydroxy substituent and uses thereof” (Purdue Pharma L.P., priority 2011, dated 2016)",
  "system": "MIA-induced osteoarthritis pain",
  "assay": "MIA-induced osteoarthritis model, grip force test",
  "assay_type": "in vivo, rat",
  "conditions": "rat MIA, grip force",
  "text": "Osteoarthritis Pain: To assess the actions of a Compound of Formula (I) for the treatment or prevention of osteoarthritis pain, the rat monosodium iodo-acetate (MIA, i.e., sodium 2-iodoacetate) induced osteoarthritis model was used. Intra-articular injection of MIA causes joint degeneration characterized by osteolysis and swelling, with displacement of the patella, and reductions in bone mineral content and bone mineral density (Pomonis et al., “Development and pharmacological characterization of a rat model of osteoarthritis pain,” Pain 114: 339-346 (2005)). Under isoflurane anaesthesia, an intra-articular injection of 2 mg of MIA (Sigma-Aldrich) in 50 μl of saline was administered through the infrapatellar ligament of the knee joint of the right hind leg of the male, 6 week old Crl:CD(SD) rats. Control rats received an intra-articular injection of 50 μl of saline into the knee joint of the right hind leg. The left knee joint of all rats was untreated. Two weeks after MIA injection, rats were assessed for osteoarthritis pain related-behaviors immediately prior to and 1, 3, 5, 7, and 24 hours after oral drug-in-vehicle administration (for day 1) by determining their weight-bearing capabilities, via the weight bearing difference (WBD) test, and their gripping capabilities, via the grip force test, each as described below. Thus, in the assessment for osteoarthritis pain relief through gripping capability determinations, the 24 hour time point was the start of the next day when drug-in-vehicle was again orally administered (24 hours after the prior administration) for certain dosages. On days 2, 3, and 4, gripping capability response was determined 3 and 24 hours thereafter.\nThe grip force (GF) of the hind legs was assessed using a Animal Grip Strength System (San Diego Instruments, San Diego, Calif.). Rats were gently restrained and allowed to grasp the wire mesh strain gauge with their hind legs. The animals were then moved in a rostral-caudal direction until they let go of the gauge. The force (in g) at which the rat let go was recorded. Each animal was tested twice at approximately 3-10 minute intervals at each time point and the average of the two readings was used for the GF in data analysis.\nGrip force, normalized to account for the weight of each animal, was expressed as “GF/B”, i.e., the ratio of GF to body weight, where GF is the grip force in grams and B is the body weight of the animal in kg. The “% GFR”, i.e., the percentage reversal of the (normalized) grip force impediment occurring post-MIA injection, was determined for each dosage at each time point using the following formula:\n[formula] where (GF/B)Drug is the GF/B determined at each post-oral-administration time-point for each dose of each substance administered to MIA-injected animals, (GF/B)Vehicle is the GF/B determined at each post-oral-administration time-point for the vehicle control administered to MIA-injected animals, and (GF/B)Control Rat is the GF/B determined for control rats (saline-injected animals receiving orally-administered vehicle only). With the exception of the controls (i.e., celecoxib, vehicle) where the student's t-test was used, Dunnett's test was conducted for the % GFR. In either instance, values with p <0.05 were considered to be statistically significant.",
  "note": "Marks after values point to notes of the source that are not given here.",
  "data": [
    {"compound": "CC1CN(c2ncc(C(O)CO)cc2F)CCN1C(=O)Nc1nc2cc(F)ccc2s1.O=C(O)C=CC(=O)O", "note": "(stereo not drawn)", "values": [
      {"measurement": "% GFR [mean]", "setting": "oral 0.3 mg/kg, 1 h (day 1)", "value": 12.8, "unit": "%"},
      {"measurement": "% GFR [mean]", "setting": "oral 0.3 mg/kg, 3 h (day 1)", "value": "21.1* %"},
      {"measurement": "% GFR [mean]", "setting": "oral 0.3 mg/kg, 3 h (day 1), listed as product prepared with Compound A155(a) and fumaric acid", "value": 21.1, "unit": "%"},
      {"measurement": "% GFR [mean]", "setting": "oral 0.3 mg/kg, 5 h (day 1)", "value": "17.3* %"},
      {"measurement": "% GFR [mean]", "setting": "oral 0.3 mg/kg, 7 h (day 1)", "value": 3.7, "unit": "%"},
      {"measurement": "% GFR [mean]", "setting": "oral 0.3 mg/kg, 24 h after day 1 dose (0 hrs day 2)", "value": 4.0, "unit": "%"},
      {"measurement": "% GFR [mean]", "setting": "oral 1 mg/kg once daily, 3 h (day 2)", "value": "43.1** %"},
      {"measurement": "% GFR [mean]", "setting": "oral 1 mg/kg once daily, 3 h (day 2), listed as product prepared with Compound A155(a) and fumaric acid", "value": 43.1, "unit": "%"},
      {"measurement": "% GFR [mean]", "setting": "oral 1 mg/kg once daily, 3 h (day 3)", "value": "38.0** %"},
      {"measurement": "% GFR [mean]", "setting": "oral 1 mg/kg once daily, 3 h (day 3), listed as product prepared with Compound A155(a) and fumaric acid", "value": 38.0, "unit": "%"},
      {"measurement": "% GFR [mean]", "setting": "oral 1 mg/kg once daily, 3 h (day 4)", "value": "40.1** %"},
      {"measurement": "% GFR [mean]", "setting": "oral 1 mg/kg once daily, 3 h (day 4), listed as product prepared with Compound A155(a) and fumaric acid", "value": 40.1, "unit": "%"},
      {"measurement": "% GFR [mean]", "setting": "oral 1 mg/kg once daily, 24 h after day 2 dose (0 hrs day 3)", "value": "15.4** %"},
      {"measurement": "% GFR [mean]", "setting": "oral 1 mg/kg once daily, 24 h after day 3 dose (0 hrs day 4)", "value": "26.1** %"},
      {"measurement": "% GFR [mean]", "setting": "oral 1 mg/kg once daily, 24 h after day 4 dose (0 hrs day 5)", "value": "26.4** %"},
      {"measurement": "% GFR [mean]", "setting": "oral 1 mg/kg, 1 h (day 1)", "value": "29.7** %"},
      {"measurement": "% GFR [mean]", "setting": "oral 1 mg/kg, 3 h (day 1)", "value": "45.2** %"},
      {"measurement": "% GFR [mean]", "setting": "oral 1 mg/kg, 3 h (day 1), listed as product prepared with Compound A155(a) and fumaric acid", "value": 45.2, "unit": "%"},
      {"measurement": "% GFR [mean]", "setting": "oral 1 mg/kg, 5 h (day 1)", "value": "37.6** %"},
      {"measurement": "% GFR [mean]", "setting": "oral 1 mg/kg, 7 h (day 1)", "value": "16.5* %"},
      {"measurement": "% GFR [mean]", "setting": "oral 1 mg/kg, 24 h after day 1 dose (0 hrs day 2)", "value": 3.1, "unit": "%"},
      {"measurement": "% GFR [mean]", "setting": "oral 3 mg/kg once daily, 3 h (day 2)", "value": "50.5** %"},
      {"measurement": "% GFR [mean]", "setting": "oral 3 mg/kg once daily, 3 h (day 2), listed as product prepared with Compound A155(a) and fumaric acid", "value": 50.5, "unit": "%"},
      {"measurement": "% GFR [mean]", "setting": "oral 3 mg/kg once daily, 3 h (day 3)", "value": "45.0** %"},
      {"measurement": "% GFR [mean]", "setting": "oral 3 mg/kg once daily, 3 h (day 3), listed as product prepared with Compound A155(a) and fumaric acid", "value": 45.0, "unit": "%"},
      {"measurement": "% GFR [mean]", "setting": "oral 3 mg/kg once daily, 3 h (day 4)", "value": "45.6** %"},
      {"measurement": "% GFR [mean]", "setting": "oral 3 mg/kg once daily, 3 h (day 4), listed as product prepared with Compound A155(a) and fumaric acid", "value": 45.6, "unit": "%"},
      {"measurement": "% GFR [mean]", "setting": "oral 3 mg/kg once daily, 24 h after day 2 dose (0 hrs day 3)", "value": "22.0** %"},
      {"measurement": "% GFR [mean]", "setting": "oral 3 mg/kg once daily, 24 h after day 3 dose (0 hrs day 4)", "value": "32.0** %"},
      {"measurement": "% GFR [mean]", "setting": "oral 3 mg/kg once daily, 24 h after day 4 dose (0 hrs day 5)", "value": "28.9** %"},
      {"measurement": "% GFR [mean]", "setting": "oral 3 mg/kg, 1 h (day 1)", "value": "36.5** %"},
      {"measurement": "% GFR [mean]", "setting": "oral 3 mg/kg, 3 h (day 1)", "value": "53.6** %"},
      {"measurement": "% GFR [mean]", "setting": "oral 3 mg/kg, 3 h (day 1), listed as product prepared with Compound A155(a) and fumaric acid", "value": 53.6, "unit": "%"},
      {"measurement": "% GFR [mean]", "setting": "oral 3 mg/kg, 5 h (day 1)", "value": "44.3** %"},
      {"measurement": "% GFR [mean]", "setting": "oral 3 mg/kg, 7 h (day 1)", "value": "19.9** %"},
      {"measurement": "% GFR [mean]", "setting": "oral 3 mg/kg, 24 h after day 1 dose (0 hrs day 2)", "value": "−2.2", "unit": "%"},
      {"measurement": "% GFR [mean]", "setting": "oral 10 mg/kg once daily, 3 h (day 2)", "value": "57.5** %"},
      {"measurement": "% GFR [mean]", "setting": "oral 10 mg/kg once daily, 3 h (day 2), listed as product prepared with Compound A155(a) and fumaric acid", "value": 57.5, "unit": "%"},
      {"measurement": "% GFR [mean]", "setting": "oral 10 mg/kg once daily, 3 h (day 3)", "value": "51.6** %"},
      {"measurement": "% GFR [mean]", "setting": "oral 10 mg/kg once daily, 3 h (day 3), listed as product prepared with Compound A155(a) and fumaric acid", "value": 51.6, "unit": "%"},
      {"measurement": "% GFR [mean]", "setting": "oral 10 mg/kg once daily, 3 h (day 4)", "value": "52.2** %"},
      {"measurement": "% GFR [mean]", "setting": "oral 10 mg/kg once daily, 3 h (day 4), listed as product prepared with Compound A155(a) and fumaric acid", "value": 52.2, "unit": "%"},
      {"measurement": "% GFR [mean]", "setting": "oral 10 mg/kg once daily, 24 h after day 2 dose (0 hrs day 3)", "value": "32.7** %"},
      {"measurement": "% GFR [mean]", "setting": "oral 10 mg/kg once daily, 24 h after day 3 dose (0 hrs day 4)", "value": "33.4** %"},
      {"measurement": "% GFR [mean]", "setting": "oral 10 mg/kg once daily, 24 h after day 4 dose (0 hrs day 5)", "value": "32.0** %"},
      {"measurement": "% GFR [mean]", "setting": "oral 10 mg/kg, 1 h (day 1)", "value": "35.9** %"},
      {"measurement": "% GFR [mean]", "setting": "oral 10 mg/kg, 3 h (day 1)", "value": "55.6** %"},
      {"measurement": "% GFR [mean]", "setting": "oral 10 mg/kg, 3 h (day 1), listed as product prepared with Compound A155(a) and fumaric acid", "value": 55.6, "unit": "%"},
      {"measurement": "% GFR [mean]", "setting": "oral 10 mg/kg, 5 h (day 1)", "value": "45.9** %"},
      {"measurement": "% GFR [mean]", "setting": "oral 10 mg/kg, 7 h (day 1)", "value": "22.8** %"},
      {"measurement": "% GFR [mean]", "setting": "oral 10 mg/kg, 24 h after day 1 dose (0 hrs day 2)", "value": "−5.7", "unit": "%"},
      {"measurement": "% GFR [mean]", "setting": "oral 20 mg/kg, 1 h (day 1)", "value": "49.0** %"},
      {"measurement": "% GFR [mean]", "setting": "oral 20 mg/kg, 3 h (day 1)", "value": "65.1** %"},
      {"measurement": "% GFR [mean]", "setting": "oral 20 mg/kg, 3 h (day 1), listed as product prepared with Compound A155(a) and fumaric acid", "value": 65.1, "unit": "%"},
      {"measurement": "% GFR [mean]", "setting": "oral 20 mg/kg, 5 h (day 1)", "value": "50.3** %"},
      {"measurement": "% GFR [mean]", "setting": "oral 20 mg/kg, 7 h (day 1)", "value": "29.3** %"},
      {"measurement": "% GFR [mean]", "setting": "oral 20 mg/kg, 24 h after day 1 dose (0 hrs day 2)", "value": "−1.3", "unit": "%"}
    ]}
  ]
}
